From the NIST ThermoML archive (doi:10.1016/j.tca.2014.07.025)

Assays:
[1] = 100 kPa, Liquid; for speed of sound: Frequency=3 MHz, Sing-around technique in a fixed-path interferometer; for mass density: Vibrating tube method
[2] = mn = molality of the nth substance listed, in mol/kg; conditions: 100 kPa, Liquid; for speed of sound: Frequency=3 MHz, Sing-around technique in a fixed-path interferometer; for mass density: Vibrating tube method

O [water]
[1]
Conditions	mass density [kg/m3]	speed of sound [m/s]
305.15 K	995.09	1513.5
310.15 K	993.403	1523.5
315.15 K	991.51	1532.2

CC1(C)S[C@@H]2[C@H](NC(=O)[C@H](N)c3ccc(O)cc3)C(=O)N2[C@H]1C(=O)O [amoxicillin] + O
[2]
Conditions	mass density, 305.15 K [kg/m3]	mass density, 310.15 K [kg/m3]	mass density, 315.15 K [kg/m3]	speed of sound, 305.15 K [m/s]	speed of sound, 310.15 K [m/s]	speed of sound, 315.15 K [m/s]
m1 = 0.0005	995.743	994.045	992.153	1514.7	1524.6	1532.9
m1 = 0.002	995.924	994.23	992.334	1515	1524.8	1533.2
m1 = 0.0035	996.115	994.412	992.522	1514.4	1524.3	1532.5

CC(C)C[C@H](NC(=O)CN)C(=O)O [glycyl-L-leucine] + O
[2]
Conditions	mass density, 305.15 K [kg/m3]	mass density, 310.15 K [kg/m3]	mass density, 315.15 K [kg/m3]	speed of sound, 305.15 K [m/s]	speed of sound, 310.15 K [m/s]	speed of sound, 315.15 K [m/s]
m1 = 0.00196	995.189	993.501	991.607	1514	1523.9	1532.4
m1 = 0.00595	995.39	993.701	991.806	1514.8	1524.6	1533
m1 = 0.00811	995.498	993.809	991.913	1515	1524.9	1533.1
m1 = 0.01008	995.597	993.908	992.01	1515.2	1525.2	1533.3
m1 = 0.02014	996.102	994.41	992.508	1516.4	1526.2	1534.5
m1 = 0.05085	997.635	995.935	994.019	1521.5	1531.4	1539.2
m1 = 0.1002	1000.07	998.358	996.42	1528.8	1538.2	1545.9
m1 = 0.1991	1004.86	1003.12	1001.14	1540.2	1548.9	1555.8
m1 = 0.299	1009.55	1007.79	1005.77	1552	1560	1566.6
